Reference: the NIST ThermoML archive (doi:10.1016/j.jct.2018.01.015)

Assay: xn = mol fraction of the nth substance listed
Conditions: Gas, rotating-body viscometer for gases

N#N [nitrogen] + O=C=O
Conditions	viscosity [mPa·s]
323.22 K, 200.9 kPa, x1 = 0.4996	0.0177
323.22 K, 398.6 kPa, x1 = 0.4996	0.01773
323.22 K, 399.4 kPa, x1 = 0.2479	0.01695
323.22 K, 598 kPa, x1 = 0.4996	0.01776
323.22 K, 605 kPa, x1 = 0.2479	0.01698
323.22 K, 798.9 kPa, x1 = 0.2479	0.01701
323.22 K, 804.9 kPa, x1 = 0.4996	0.0178
323.22 K, 996.4 kPa, x1 = 0.4996	0.01783
323.22 K, 1001.8 kPa, x1 = 0.2479	0.01705
323.22 K, 1196.8 kPa, x1 = 0.2479	0.0171
323.22 K, 1198.6 kPa, x1 = 0.4996	0.01787
323.26 K, 100.6 kPa, x1 = 1	0.0189
323.26 K, 101.5 kPa, x1 = 1	0.0189
323.26 K, 200.7 kPa, x1 = 1	0.0189
323.26 K, 400.4 kPa, x1 = 1	0.01893
323.26 K, 600.8 kPa, x1 = 1	0.01896
323.26 K, 800.2 kPa, x1 = 1	0.01896
323.26 K, 1000.6 kPa, x1 = 1	0.01901
323.26 K, 1000.9 kPa, x1 = 1	0.01901
323.27 K, 398.8 kPa, x1 = 1	0.01893
323.27 K, 1501.9 kPa, x1 = 1	0.01907
323.27 K, 1802.1 kPa, x1 = 1	0.01913
373.25 K, 103.3 kPa, x1 = 0.2479	0.01923
373.25 K, 107.8 kPa, x1 = 0.4996	0.01998
373.25 K, 200.1 kPa, x1 = 0.2479	0.01925
373.25 K, 200.7 kPa, x1 = 0.4996	0.02
373.25 K, 391.3 kPa, x1 = 0.4996	0.02002
373.25 K, 400.6 kPa, x1 = 0.2479	0.01928
373.25 K, 598.5 kPa, x1 = 0.4996	0.02005
373.25 K, 601.5 kPa, x1 = 0.2479	0.0193
373.25 K, 799.5 kPa, x1 = 0.4996	0.02008
373.25 K, 802.2 kPa, x1 = 0.2479	0.01933
373.25 K, 998.6 kPa, x1 = 0.4996	0.02011
373.25 K, 999.6 kPa, x1 = 0.2479	0.01937
373.25 K, 1498 kPa, x1 = 0.4996	0.0202
373.25 K, 1498.2 kPa, x1 = 0.2479	0.01947
373.29 K, 100.8 kPa, x1 = 1	0.02102
373.29 K, 201.1 kPa, x1 = 1	0.02104
373.29 K, 401 kPa, x1 = 1	0.02106
373.29 K, 601 kPa, x1 = 1	0.02107
373.29 K, 1000.3 kPa, x1 = 1	0.02111
373.29 K, 1500.6 kPa, x1 = 1	0.02118
373.29 K, 1807.2 kPa, x1 = 1	0.02122
373.57 K, 108.8 kPa, x1 = 0.7498	0.02061
373.57 K, 199.2 kPa, x1 = 0.7498	0.02064
373.57 K, 399.3 kPa, x1 = 0.7498	0.02065
373.57 K, 598.2 kPa, x1 = 0.7498	0.02068
373.57 K, 1002.4 kPa, x1 = 0.7498	0.02073
373.57 K, 1501.2 kPa, x1 = 0.7498	0.02081
373.57 K, 2041.9 kPa, x1 = 0.7498	0.02091
423.27 K, 108.9 kPa, x1 = 0.7498	0.02271
423.27 K, 200.4 kPa, x1 = 0.7498	0.02272
423.27 K, 398.7 kPa, x1 = 0.7498	0.02274
423.27 K, 600.7 kPa, x1 = 0.7498	0.02275
423.27 K, 1000.3 kPa, x1 = 0.7498	0.02281
423.27 K, 1500.1 kPa, x1 = 0.7498	0.02287
423.27 K, 2000 kPa, x1 = 0.7498	0.02293
423.28 K, 107.7 kPa, x1 = 0.2479	0.02144
423.28 K, 109.4 kPa, x1 = 0.4996	0.02216
423.28 K, 199.9 kPa, x1 = 0.4996	0.02216
423.28 K, 400 kPa, x1 = 0.4996	0.02219
423.28 K, 603 kPa, x1 = 0.4996	0.02221
423.28 K, 1001.7 kPa, x1 = 0.4996	0.02226
423.28 K, 1496.5 kPa, x1 = 0.4996	0.02233
423.28 K, 1995 kPa, x1 = 0.4996	0.02242
423.29 K, 201.4 kPa, x1 = 0.2479	0.02145
423.29 K, 405.1 kPa, x1 = 0.2479	0.02148
423.29 K, 601.1 kPa, x1 = 0.2479	0.02151
423.29 K, 1000.7 kPa, x1 = 0.2479	0.02156
423.29 K, 1495.1 kPa, x1 = 0.2479	0.02165
423.29 K, 1998.5 kPa, x1 = 0.2479	0.02175
423.33 K, 100.9 kPa, x1 = 1	0.02302
423.33 K, 200.9 kPa, x1 = 1	0.02303
423.33 K, 400.7 kPa, x1 = 1	0.02306
423.33 K, 600.6 kPa, x1 = 1	0.02308
423.33 K, 1000.5 kPa, x1 = 1	0.02311
423.33 K, 1500.2 kPa, x1 = 1	0.02316
423.33 K, 1799.4 kPa, x1 = 1	0.02319
473.31 K, 108.7 kPa, x1 = 0.7498	0.0247
473.31 K, 199 kPa, x1 = 0.7498	0.02471
473.31 K, 399 kPa, x1 = 0.7498	0.02472
473.31 K, 602.8 kPa, x1 = 0.7498	0.02474
473.31 K, 1003.8 kPa, x1 = 0.7498	0.02477
473.31 K, 1501.4 kPa, x1 = 0.7498	0.02482
473.31 K, 1996.7 kPa, x1 = 0.7498	0.02489
473.32 K, 108.1 kPa, x1 = 0.4996	0.02422
473.32 K, 203.7 kPa, x1 = 0.4996	0.02423
473.32 K, 400.1 kPa, x1 = 0.4996	0.02424
473.32 K, 602.4 kPa, x1 = 0.4996	0.02427
473.32 K, 1006.2 kPa, x1 = 0.4996	0.02431
473.32 K, 1503 kPa, x1 = 0.4996	0.02437
473.32 K, 1991.9 kPa, x1 = 0.4996	0.02444
473.34 K, 109.3 kPa, x1 = 0.2479	0.02355
473.34 K, 203.1 kPa, x1 = 0.2479	0.02356
473.34 K, 395.8 kPa, x1 = 0.2479	0.02358
473.34 K, 597.3 kPa, x1 = 0.2479	0.02359
473.34 K, 1000.4 kPa, x1 = 0.2479	0.02365
473.34 K, 1495.4 kPa, x1 = 0.2479	0.02373
473.34 K, 1998.5 kPa, x1 = 0.2479	0.02382
473.38 K, 100.7 kPa, x1 = 1	0.02494
473.38 K, 200.8 kPa, x1 = 1	0.02495
473.38 K, 398.5 kPa, x1 = 1	0.02496
473.38 K, 600.9 kPa, x1 = 1	0.02497
473.38 K, 1000.7 kPa, x1 = 1	0.02499
473.38 K, 1500.6 kPa, x1 = 1	0.02503
473.38 K, 1799.3 kPa, x1 = 1	0.02505
